The text below walks through data of ChEMBL document CHEMBL4507319 (2021).

Molecules are shown by their SMILES.

Holding throughout (details): Compound concentration 1000.0 nM
The target of assay [1] is Proto-oncogene tyrosine-protein kinase Src (Homo sapiens) (UniProt P12931).
The target of assay [2] is Phosphorylase b kinase gamma catalytic chain, skeletal muscle/heart isoform (Homo sapiens) (UniProt Q16816).
For assay [3], the target named is T1, Ephrin type-A receptor 1 (Homo sapiens) (UniProt P21709).
T1 sequence (whole entry): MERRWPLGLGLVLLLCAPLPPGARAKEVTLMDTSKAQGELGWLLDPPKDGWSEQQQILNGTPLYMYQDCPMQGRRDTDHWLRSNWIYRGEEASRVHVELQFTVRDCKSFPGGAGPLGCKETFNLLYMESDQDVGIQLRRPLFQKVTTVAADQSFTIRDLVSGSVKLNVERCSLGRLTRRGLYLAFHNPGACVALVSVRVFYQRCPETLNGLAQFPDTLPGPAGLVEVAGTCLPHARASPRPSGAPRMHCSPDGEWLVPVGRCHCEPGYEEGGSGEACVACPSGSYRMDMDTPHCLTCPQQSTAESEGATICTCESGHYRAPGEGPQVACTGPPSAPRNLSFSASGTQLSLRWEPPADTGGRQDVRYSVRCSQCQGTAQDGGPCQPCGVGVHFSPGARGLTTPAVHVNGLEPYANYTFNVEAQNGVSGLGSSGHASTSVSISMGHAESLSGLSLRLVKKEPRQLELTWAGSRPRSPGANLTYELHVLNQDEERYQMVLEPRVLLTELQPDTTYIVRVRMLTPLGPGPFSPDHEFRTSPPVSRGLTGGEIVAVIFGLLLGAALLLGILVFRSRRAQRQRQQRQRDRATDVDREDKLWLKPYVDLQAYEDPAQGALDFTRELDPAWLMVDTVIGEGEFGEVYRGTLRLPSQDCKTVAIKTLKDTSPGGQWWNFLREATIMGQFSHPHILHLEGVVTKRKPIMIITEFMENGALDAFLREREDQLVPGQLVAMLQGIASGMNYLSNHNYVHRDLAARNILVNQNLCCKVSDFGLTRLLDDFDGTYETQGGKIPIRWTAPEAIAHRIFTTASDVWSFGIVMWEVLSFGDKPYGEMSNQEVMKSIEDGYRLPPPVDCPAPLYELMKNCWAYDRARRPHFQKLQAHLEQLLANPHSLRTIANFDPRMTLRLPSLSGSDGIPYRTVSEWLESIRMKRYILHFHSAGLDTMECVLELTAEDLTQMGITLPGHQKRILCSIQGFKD

The subject of assay [4] is eIF-2-alpha kinase GCN2 (Homo sapiens), Q9P2K8 [S808G].
Assay [5] concerns the target T2, Myotonin-protein kinase (Homo sapiens) (UniProt Q09013).
T2 sequence (whole entry): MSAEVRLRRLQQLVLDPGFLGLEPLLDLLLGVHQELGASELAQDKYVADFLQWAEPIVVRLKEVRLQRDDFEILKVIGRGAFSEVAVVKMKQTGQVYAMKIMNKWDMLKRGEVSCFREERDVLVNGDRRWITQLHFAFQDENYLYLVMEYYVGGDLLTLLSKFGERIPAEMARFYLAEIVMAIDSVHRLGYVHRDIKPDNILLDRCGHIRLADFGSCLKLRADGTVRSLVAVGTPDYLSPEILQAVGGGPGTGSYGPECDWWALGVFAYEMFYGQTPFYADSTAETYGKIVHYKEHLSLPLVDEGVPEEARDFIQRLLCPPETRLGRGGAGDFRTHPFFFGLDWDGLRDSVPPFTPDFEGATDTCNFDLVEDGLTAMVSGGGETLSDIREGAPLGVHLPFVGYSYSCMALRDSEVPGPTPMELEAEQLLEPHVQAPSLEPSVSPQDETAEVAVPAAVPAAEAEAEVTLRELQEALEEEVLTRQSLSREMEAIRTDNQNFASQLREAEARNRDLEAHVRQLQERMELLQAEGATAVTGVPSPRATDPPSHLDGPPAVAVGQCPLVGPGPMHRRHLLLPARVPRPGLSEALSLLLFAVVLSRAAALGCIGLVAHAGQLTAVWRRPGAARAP

Assay [6] has as its target Serine/threonine-protein kinase N2 (Homo sapiens) (UniProt Q16513).
Assay [7] concerns the target Ribosomal protein S6 kinase alpha-3 (Homo sapiens, UniProt P51812).
Assay [8] concerns the target Cyclin-dependent kinase 11B (Homo sapiens) (UniProt P21127).
Assay [9] deals with Rho-associated protein kinase 2 (Homo sapiens) (UniProt O75116).
The target in assay [10] is Serine/threonine-protein kinase PRP4 homolog (Homo sapiens) (UniProt Q13523).
Assay [11] deals with T3, Muscle, skeletal receptor tyrosine-protein kinase (Homo sapiens) (UniProt O15146).
T3 sequence (whole entry): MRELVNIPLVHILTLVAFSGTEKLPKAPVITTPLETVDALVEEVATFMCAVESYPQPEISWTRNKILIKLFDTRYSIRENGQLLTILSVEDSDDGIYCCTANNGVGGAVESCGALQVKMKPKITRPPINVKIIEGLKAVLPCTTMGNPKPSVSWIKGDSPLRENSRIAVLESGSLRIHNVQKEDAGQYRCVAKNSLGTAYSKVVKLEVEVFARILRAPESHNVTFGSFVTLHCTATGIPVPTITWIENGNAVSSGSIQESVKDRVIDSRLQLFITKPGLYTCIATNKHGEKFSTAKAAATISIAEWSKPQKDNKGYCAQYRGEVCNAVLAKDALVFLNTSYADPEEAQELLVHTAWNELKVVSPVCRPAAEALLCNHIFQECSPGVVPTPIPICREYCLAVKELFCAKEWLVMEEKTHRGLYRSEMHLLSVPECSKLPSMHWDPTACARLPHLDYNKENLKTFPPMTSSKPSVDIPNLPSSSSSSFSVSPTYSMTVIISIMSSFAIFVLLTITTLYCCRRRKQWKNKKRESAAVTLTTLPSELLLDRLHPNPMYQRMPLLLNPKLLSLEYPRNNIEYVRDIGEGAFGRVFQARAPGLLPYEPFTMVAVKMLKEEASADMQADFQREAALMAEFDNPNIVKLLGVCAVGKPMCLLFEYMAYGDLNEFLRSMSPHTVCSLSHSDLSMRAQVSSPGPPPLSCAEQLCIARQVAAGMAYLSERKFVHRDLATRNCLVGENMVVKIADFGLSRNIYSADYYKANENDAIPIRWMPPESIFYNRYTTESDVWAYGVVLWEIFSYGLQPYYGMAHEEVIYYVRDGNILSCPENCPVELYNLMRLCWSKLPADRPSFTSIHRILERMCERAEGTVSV

The target in assay [12] is Ephrin type-A receptor 7 (Homo sapiens) (UniProt Q15375).
Sequence of Ephrin type-A receptor 7 (Homo sapiens) (Q15375 28-998 limits assumed): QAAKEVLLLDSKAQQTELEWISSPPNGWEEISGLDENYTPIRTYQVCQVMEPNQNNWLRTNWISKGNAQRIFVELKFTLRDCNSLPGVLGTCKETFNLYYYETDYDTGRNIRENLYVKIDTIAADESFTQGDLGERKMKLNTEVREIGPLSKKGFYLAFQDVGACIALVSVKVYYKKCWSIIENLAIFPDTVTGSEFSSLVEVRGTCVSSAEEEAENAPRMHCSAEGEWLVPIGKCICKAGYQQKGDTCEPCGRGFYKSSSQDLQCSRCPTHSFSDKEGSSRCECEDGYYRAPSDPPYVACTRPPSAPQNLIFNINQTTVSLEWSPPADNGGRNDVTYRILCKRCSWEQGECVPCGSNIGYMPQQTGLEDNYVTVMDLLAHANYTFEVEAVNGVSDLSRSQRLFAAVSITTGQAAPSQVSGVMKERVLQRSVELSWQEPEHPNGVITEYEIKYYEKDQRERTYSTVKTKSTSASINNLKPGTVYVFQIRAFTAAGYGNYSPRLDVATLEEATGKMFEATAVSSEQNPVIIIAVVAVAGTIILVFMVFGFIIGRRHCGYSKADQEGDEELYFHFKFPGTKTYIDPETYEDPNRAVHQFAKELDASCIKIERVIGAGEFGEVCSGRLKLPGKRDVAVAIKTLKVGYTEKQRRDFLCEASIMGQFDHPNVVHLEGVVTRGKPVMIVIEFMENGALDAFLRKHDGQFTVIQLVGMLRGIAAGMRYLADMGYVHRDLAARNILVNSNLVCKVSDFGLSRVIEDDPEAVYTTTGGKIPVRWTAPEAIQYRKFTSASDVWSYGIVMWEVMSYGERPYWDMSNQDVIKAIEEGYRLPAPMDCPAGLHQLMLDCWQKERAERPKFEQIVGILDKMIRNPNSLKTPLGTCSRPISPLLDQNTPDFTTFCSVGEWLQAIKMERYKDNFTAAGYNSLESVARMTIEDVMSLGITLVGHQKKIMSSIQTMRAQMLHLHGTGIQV

Sequence of Ribosomal protein S6 kinase alpha-3 (P51812 whole entry): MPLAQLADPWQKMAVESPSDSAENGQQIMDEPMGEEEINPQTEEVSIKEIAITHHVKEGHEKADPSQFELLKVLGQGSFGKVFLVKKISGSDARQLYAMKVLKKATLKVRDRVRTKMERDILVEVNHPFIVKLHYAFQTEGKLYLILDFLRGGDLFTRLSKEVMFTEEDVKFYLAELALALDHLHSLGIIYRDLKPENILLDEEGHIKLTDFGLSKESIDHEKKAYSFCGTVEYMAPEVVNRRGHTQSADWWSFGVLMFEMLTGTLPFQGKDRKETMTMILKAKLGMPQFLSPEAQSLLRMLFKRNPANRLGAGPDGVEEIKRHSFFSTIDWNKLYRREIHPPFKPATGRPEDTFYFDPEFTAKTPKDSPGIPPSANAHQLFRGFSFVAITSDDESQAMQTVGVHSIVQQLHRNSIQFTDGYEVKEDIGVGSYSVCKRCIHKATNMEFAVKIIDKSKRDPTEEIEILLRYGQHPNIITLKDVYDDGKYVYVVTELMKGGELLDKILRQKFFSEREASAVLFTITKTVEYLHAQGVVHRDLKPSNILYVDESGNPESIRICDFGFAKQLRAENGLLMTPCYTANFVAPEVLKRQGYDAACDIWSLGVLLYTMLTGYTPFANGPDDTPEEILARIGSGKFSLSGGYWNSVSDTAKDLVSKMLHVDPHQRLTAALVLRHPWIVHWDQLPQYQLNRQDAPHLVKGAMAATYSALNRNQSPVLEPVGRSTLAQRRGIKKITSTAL
Sequence of Proto-oncogene tyrosine-protein kinase Src (Homo sapiens) (P12931 2-536 limits assumed): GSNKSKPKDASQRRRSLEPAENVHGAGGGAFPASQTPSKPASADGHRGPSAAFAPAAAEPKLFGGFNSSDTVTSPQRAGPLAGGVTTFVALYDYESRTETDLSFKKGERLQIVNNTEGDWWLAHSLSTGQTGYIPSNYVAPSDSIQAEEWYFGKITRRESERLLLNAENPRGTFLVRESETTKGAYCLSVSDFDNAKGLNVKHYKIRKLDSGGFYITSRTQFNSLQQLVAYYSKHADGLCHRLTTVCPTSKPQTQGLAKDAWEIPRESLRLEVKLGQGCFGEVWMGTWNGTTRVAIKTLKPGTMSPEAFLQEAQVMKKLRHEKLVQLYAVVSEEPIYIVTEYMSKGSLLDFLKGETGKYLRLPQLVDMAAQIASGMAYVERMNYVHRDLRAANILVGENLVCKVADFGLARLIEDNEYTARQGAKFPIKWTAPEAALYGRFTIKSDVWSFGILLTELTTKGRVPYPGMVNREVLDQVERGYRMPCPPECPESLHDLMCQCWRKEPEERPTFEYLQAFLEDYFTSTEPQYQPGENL
Sequence of Rho-associated protein kinase 2 (Homo sapiens) (O75116 whole entry, looked up): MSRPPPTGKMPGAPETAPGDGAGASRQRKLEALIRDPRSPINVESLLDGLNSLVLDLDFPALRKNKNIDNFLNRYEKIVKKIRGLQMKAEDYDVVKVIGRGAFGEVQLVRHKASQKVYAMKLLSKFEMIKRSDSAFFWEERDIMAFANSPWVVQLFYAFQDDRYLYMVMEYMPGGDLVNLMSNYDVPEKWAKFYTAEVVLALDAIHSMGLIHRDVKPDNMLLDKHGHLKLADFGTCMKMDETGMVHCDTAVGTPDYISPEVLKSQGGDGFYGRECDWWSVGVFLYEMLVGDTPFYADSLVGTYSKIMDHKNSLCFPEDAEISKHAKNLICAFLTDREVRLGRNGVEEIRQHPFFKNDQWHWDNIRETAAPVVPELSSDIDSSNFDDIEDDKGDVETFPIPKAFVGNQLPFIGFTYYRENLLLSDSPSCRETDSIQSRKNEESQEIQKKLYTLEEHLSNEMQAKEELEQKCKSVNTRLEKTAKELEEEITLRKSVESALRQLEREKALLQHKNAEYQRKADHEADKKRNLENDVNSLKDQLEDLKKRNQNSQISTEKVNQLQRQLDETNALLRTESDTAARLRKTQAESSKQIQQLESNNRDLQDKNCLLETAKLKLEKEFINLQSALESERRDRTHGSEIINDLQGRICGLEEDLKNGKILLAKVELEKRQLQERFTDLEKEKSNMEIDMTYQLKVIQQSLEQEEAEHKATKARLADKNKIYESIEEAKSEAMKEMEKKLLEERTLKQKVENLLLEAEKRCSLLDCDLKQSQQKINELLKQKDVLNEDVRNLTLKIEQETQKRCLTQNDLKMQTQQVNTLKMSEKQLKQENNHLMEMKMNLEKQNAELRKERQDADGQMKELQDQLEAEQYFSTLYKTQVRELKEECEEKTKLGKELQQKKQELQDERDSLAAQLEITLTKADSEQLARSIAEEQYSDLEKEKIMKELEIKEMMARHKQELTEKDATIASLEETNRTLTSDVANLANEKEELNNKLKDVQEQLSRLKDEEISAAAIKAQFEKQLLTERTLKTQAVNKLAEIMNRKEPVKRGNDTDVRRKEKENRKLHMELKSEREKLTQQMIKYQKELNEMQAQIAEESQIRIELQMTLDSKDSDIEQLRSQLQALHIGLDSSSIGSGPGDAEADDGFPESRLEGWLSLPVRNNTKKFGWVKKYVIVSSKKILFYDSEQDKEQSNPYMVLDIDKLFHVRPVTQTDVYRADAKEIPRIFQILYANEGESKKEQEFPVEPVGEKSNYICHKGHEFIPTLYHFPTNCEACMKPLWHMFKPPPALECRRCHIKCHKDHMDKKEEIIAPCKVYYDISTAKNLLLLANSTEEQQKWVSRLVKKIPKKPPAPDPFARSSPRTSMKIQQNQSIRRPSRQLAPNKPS
Sequence of Cyclin-dependent kinase 11B (Homo sapiens) (P21127 whole entry): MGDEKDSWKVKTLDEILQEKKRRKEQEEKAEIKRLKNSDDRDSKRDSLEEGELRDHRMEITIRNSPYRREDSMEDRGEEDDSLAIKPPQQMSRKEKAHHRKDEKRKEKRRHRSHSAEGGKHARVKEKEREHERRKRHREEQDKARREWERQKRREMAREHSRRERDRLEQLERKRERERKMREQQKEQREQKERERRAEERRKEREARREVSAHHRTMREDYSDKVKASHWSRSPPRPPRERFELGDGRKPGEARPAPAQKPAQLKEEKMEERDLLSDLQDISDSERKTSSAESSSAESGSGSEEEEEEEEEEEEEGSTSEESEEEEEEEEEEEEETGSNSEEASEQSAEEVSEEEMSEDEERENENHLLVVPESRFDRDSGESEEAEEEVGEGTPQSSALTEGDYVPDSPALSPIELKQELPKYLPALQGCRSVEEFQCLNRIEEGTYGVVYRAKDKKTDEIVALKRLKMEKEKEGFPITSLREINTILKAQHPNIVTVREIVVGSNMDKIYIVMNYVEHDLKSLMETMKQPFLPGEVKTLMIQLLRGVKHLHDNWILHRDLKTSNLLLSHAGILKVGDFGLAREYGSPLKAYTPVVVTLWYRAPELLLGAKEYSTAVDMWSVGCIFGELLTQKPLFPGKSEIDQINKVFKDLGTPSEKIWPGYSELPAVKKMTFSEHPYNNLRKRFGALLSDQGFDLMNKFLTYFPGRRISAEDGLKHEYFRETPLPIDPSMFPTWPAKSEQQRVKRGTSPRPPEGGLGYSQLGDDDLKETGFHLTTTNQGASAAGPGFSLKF
Sequence of Phosphorylase b kinase gamma catalytic chain, skeletal muscle/heart isoform (Homo sapiens) (Q16816 whole entry, looked up, canonical isoform): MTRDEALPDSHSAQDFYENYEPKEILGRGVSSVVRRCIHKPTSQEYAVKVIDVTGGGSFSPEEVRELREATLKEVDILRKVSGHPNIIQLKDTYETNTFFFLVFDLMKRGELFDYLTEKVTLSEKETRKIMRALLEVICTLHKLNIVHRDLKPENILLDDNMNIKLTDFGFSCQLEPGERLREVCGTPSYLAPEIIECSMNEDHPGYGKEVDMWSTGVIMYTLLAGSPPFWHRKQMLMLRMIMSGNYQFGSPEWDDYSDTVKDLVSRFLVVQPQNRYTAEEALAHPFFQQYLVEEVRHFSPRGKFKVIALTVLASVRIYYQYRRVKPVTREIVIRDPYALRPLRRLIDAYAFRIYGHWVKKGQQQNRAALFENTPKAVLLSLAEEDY

Broadly, the residual activity is the share of the control activity or signal that is left under treatment. Take `CCc1ccccc1C(=O)Nc1n[nH]c2c(C)c(F)c(C3C(C#N)=C(C)N(C)C(C)=C3C#N)cc12` [BAY-3827]: the residual activity in assay [1] was 94%; in assay [2], 44%; in assay [3] it was 60%; in assay [4], 43%; in [5] it was 100%; in [6], 100%. The residual activity was 0.3% in assay [7]; 100% in assay [8]; 100% in assay [9]; 72% in [10]; 83% in assay [11]; 81% in [12].

`CC1=C(C#N)C(c2ccc3c(c2)c(NC(=O)c2ccccc2C)nn3C)C(C#N)=C(C)N1` [BAY-974]: the residual activity is 89% in assay [1]; 91% in assay [2]; 88% in [3]; 61% in [4]; 99% in assay [5]; 100% in assay [6]. The residual activity in assay [7] is 86%; in assay [8], 100%; in assay [9], 93%; in assay [10], 77%; in assay [11] it was 98%; in [12], 100%.
